{"source": "patent US20140288136A1", "about": "“METHODS AND USES OF CYTOCHROME P450 INHIBITORS” (ANGION BIOMEDICA CORP, priority 2009, published 2014)", "origin": "cited, not measured here", "test_system": "hepatitis C", "details": "chronic hepatitis C infection", "note": "Where two headings read alike, the source gives them in different places.", "data": [{"substance": "interferon", "values": [{"measurement": "response", "setting": "in combination with ribavirin", "value": "~50", "unit": "%"}, {"measurement": "response", "setting": "used alone", "value": "~20", "unit": "%"}]}]}
